One experiment relates to Herpes Simplex Virus. In words: Plaque reduction assay, HSV (type not given). The format is cell-based, Herpes Simplex Virus types 1 (HSV 1) and 2 (HSV2). To be noted: read-out: 50% inhibitory concentration (IC50). The procedure: (§1) Herpes Simplex Virus types 1 (HSV 1) and 2 (HSV2) were assayed in monolayers of Veto cells in multiwell trays. The virus strains used were SC16 and 186 for HSV-1 and HSV-2 respectively. Activity of compounds was determined in the plaque reduction assay, in which a cell monolayer was infected with a suspension of the appropirate HSV, and then overlaid with nutrient agarose in the form of a gel to ensure that there was no spread of virus throughout the culture. A range of concentrations of compound of known molarity was incorporated in the nutrient agarose overlay. Plaque numbers at each concentration were expressed as percentages of the control and a dose-response curve was drawn. From this curve the 50% inhibitory concentration (IC50) was estimated to be 0.66 μm for the compound of formula (I) in which X represents a 2-bromovinyl group.
For orientation: Plaques are areas of infected cells; plaque reduction assays count them against a control.

The subject of another experiment is HSV2. The experiment is described as follows: Plaque reduction assay, HSV-2 (strain 186) in cell monolayers. Format: cell-based, Herpes Simplex Virus type 2. The conditions noted are these: Human alphaherpesvirus 2, Table 1; β-anomers; HSV-2 strain 186, plaque reduction. How it is done:
as §1

In another experiment the test system is HSV1. The experiment is described as follows: Plaque reduction assay, HSV-1 (strain SC16) in cell monolayers. Format: cell-based, Herpes Simplex Virus type 1. To be noted: Human alphaherpesvirus 1, SC16, Table 1; β-anomers; HSV-1 strain SC16, plaque reduction. How it is done: as §1
A further experiment concerns VZV. The experiment is described as follows: Plaque reduction assay, VZV clinical isolates in MRC-5 cells. The format is cell-based, varicella zoster virus. The conditions noted are these: read-out: IC50 VZV, Table 1, β-anomers. The procedure:
Clinical isolates of varicella zoster virus (VZV) were assayed in monolayers of MRC-5 cells. MRC-5 cells are derived from human embyonic lung tissue. A plaque reduction assay was used in which a suspension of the virus stock was used to infect monolayers of the cells in multiwell trays. a range of concentrations of the compound under test of known molarity was added to the wells. Plaque numbers at each concnetration were expressed as percentages of the control and a dose response curve was constructed. From these curves the 50% inhibitory concentration of each drug was determined.

As to `O=c1[nH]c(=O)n([C@H]2C[C@H](O)[C@@H](CO)S2)cc1/C=C/Br` [X=CH=CHBr, Y=OH, E-5-(2-bromovinyl)-2'-deoxy-4'-thiouridine], the IC50 is 0.66 µM in the experiment with Herpes Simplex Virus, 10 to 100 µM in the experiment with HSV2 and 0.6 µM with HSV1. On to `CCc1cn([C@H]2C[C@H](O)[C@@H](CO)S2)c(=O)[nH]c1=O` [X=CH2 CH3, Y=OH, 2'-Deoxy-5-ethyl-4'-thiouridine], for which, in the experiment on VZV, the IC50 worked out at 0.99 µM. Consider `Nc1nc(=O)n([C@H]2C[C@H](O)[C@@H](CO)S2)cc1/C=C/Br` [X=CH=CHBr, Y=NH2, 2'-Deoxy-5-E-(2-bromovinyl)-4'-thiocytidine], for which, in the experiment on HSV2, the IC50 was > 10 µM.

The record behind these values is patent US5521163A, “Antiviral pyrimidine nucleosides and methods for using same” (University of Birmingham, priority 1994, dated 1996).
